Assay results reported in patent publication US4997835A, “Substituted 2-acylpyridine-α-(N)-hetarlyhydrazones and medicaments containing the same” (priority 1987, dated 1991).
In brackets after ≈: the same amount, converted by molar mass. Where two headings read alike, the source gives them in different places.

Legend:
Mycobacterium lufu = test: Minimum inhibiting concentration, M. lufu L 209; format: cell-based; conditions: Mycobacterium lufu
[1] = test system: Mycobacterium tuberculosis H 37 RV; test: Minimum inhibiting concentration, M. tuberculosis H37RV; format: cell-based; conditions: Mycobacterium tuberculosis; M. tub. H37RV
Description: The minimum inhibiting concentration of the commercially available and inventive substances given in Table 2 was determined according to the known standard process ("Methods for sensitivity testing of bacterial infectious germs", DIN 58940, part 5).
The determination was carried out on the following bacterial cultures:
2. Mycobacterium tuberculosis H 37 RV, FIB 2-85 JS
For culturing the bacterial cultures use was made of nutrient substrates according to Gottsacker and Lowenstein Jensen and culture media according to Lockemann or Dubos-Davis (cf. "Detection processes for mycobacteria from test material, III, culture medium formulations for culturing tuberculosis bacteria", 1978, Publisher: Deutsches Zentralkomitee zur Bekampfung der Tuberculose, Poppenhusenstrasse 14c, 2000 Hamburg 60).
In each case 5×10^-3 to 5×10^-5 mg, based on the wet weight, of the mycobacterial strains were incubated in 2 ml of culture fluid (Lockemann +0.5 wt/vol. % bovine serum albumen fraction 5) at 31° C. with a graded concentration of the particular inhibitor (dilution series). The culture tubes were read off after 8 to 15 days, as a function of the bacterial strain.
The MIC is the inhibitor concentration in μMol/l at which no propagation of the sewn cells is observed.

[2] = test system: Mycobacterium marinum SN 1254; test: Minimum inhibiting concentration, M. marinum SN1254; format: cell-based; conditions: M. marin. SN1254, read-out: Minimum inhibiting concentration
[3] = test system: Mycobacterium smegmatis ATCC 607; test: Minimum inhibiting concentration, M. smegmatis ATCC 607; format: cell-based; conditions: Mycolicibacterium smegmatis, ATCC607; M. smegm. ATCC 607; read-out: Minimum inhibiting concentration
[4] = test system: Mycobacterium avium SN 304; test: Minimum inhibiting concentration, M. avium SN 304; format: cell-based
[5] = test system: Indochina W-2 (parasitic malaria strain); test: Growth of malaria strain Indochina W-2; format: cell-based
Excerpt: (§1) Determination of the semimaximum inhibiting concentration (I50) of typical representatives of the inventive compounds for the growth of parasitic malaria strains:
(§2) The determination took place according to the standard process (cf. WHO determination process).
(§3) The process according to Example 35 was repeated with the difference that the semimaximum inhibiting concentration of combinations of the inventive compound PH 22 with (2), (3) inhibitors of dihydrofolic acid reductase, (4) inhibitors of folate synthase and dihydrofolic acid reductase and (5), (6) inhibitors of DNA-synthesis were determined.

[6] = test system: Sierra Leone D-6 (parasitic malaria strain); test: Growth of malaria strain Sierra Leone D-6; format: cell-based
Excerpt: as §1, §2, §3

[7] = test system: human mammary tumour cell line MDA-MB231; test: Inhibition of cellnumber increase; format: cell-based; conditions: MDA-MB-231, read-out: 50% Inhibition of cellnumber increase, I50
Description: (§4) The semimaximum inhibition of cellnumber increase and thymidine incorporation into DNA was determined on the […], human mammary tumour cell line MDA-MB231 (cf. H. D. Soule et al, J. Nat. Cancer Inst., 51, p.1409, 1973) according to the method described by H. Seidenberger, G. Kranzfelder, S. Wappes, H. Schonenberger, W. Beck and M. Girth, Arch. Pharm. 314, 955, 1981 and M. Lippman, M. E. Monaco and G. Bolan, Cancer Res. 37, 1901, 1977.

[8] = test system: human mammary tumour cell line MDA-MB231; test: Inhibition of thymidine incorporation into DNA; format: cell-based; conditions: MDA-MB-231, read-out: 50% Inhibition of thymidine incorporation
Description: as §4

[9] = test system: Mycobacterium avium Patient Strain (Birk); test: Minimum inhibiting concentration, M. avium Patient Strain (Birk); format: cell-based; conditions: Mycobacterium avium, read-out: Minimum inhibiting concentration
[10] = cited from earlier work
[11] = K. C. Agrawal et al, Biochem. Pharmacol. 1974; cited from earlier work
lymphatic leukaemia P388 = conditions: C. Pellerano et al, Il Farmaco 1985; cited from earlier work
in vivo = conditions: sc, Rat, subc., read-out: LD50
Description: The acute toxicity after a single administration of PH 22, pyridine-2-aldehyde-thiosemicarbazone (Py-2-TSC), as well as Conteben (thiacetazone, 4-acetylaminobenzaldehyde-thiosemicarbazone) was determined according to H. J. Hapke, Toxikologie fur Veterinarmediziner, F. Enke Verlag, Stuttgart 1975. The test animals used were Wistar rats and NMRI white mice.

[12] = SN304, M. avium SN 304, read-out: Minimum inhibiting concentration

SMILES: C(=NNc1ccc2ccccc2n1)c1ccccn1 [PQ 22, pyridine-2-aldehyde-2'-quinolylhydrazone]
- MIC (Mycobacterium lufu): 10 µM (≈ 2.48 µg/mL)
- MIC [1]: 28 µM (≈ 6.95 µg/mL)
- MIC [2]: 12 µM (≈ 2.98 µg/mL)
- MIC [3]: 21 µM (≈ 5.21 µg/mL)
- MIC [4, 12]: 24 µM (≈ 5.96 µg/mL)
- IC50 ([5]; read-out: I50): 1100 nM
- IC90 ([5]; read-out: I90): 1700 nM
- IC50 ([6]; read-out: I50): 1500 nM
- IC90 ([6]; read-out: I90): 2000 nM
- IC50 [7]: 321 nM
- IC50 [8]: 157 nM

SMILES: c1ccc(C(=NNc2ccc3ccccc3n2)c2ccccn2)cc1 [PH 22-15, 2-benzoylpyridine-2'-quinolylhydrazone]
- MIC (Mycobacterium lufu): 1.2 µM (≈ 0.389 µg/mL)
- MIC [1]: 0.97 µM (≈ 0.315 µg/mL)
- MIC [2]: 4.6 µM (≈ 1.49 µg/mL)
- MIC [3]: 3.1 µM (≈ 1.01 µg/mL)
- MIC ([9]; M. avium Patient str.): 18.5 µM (≈ 6 µg/mL)
- IC50 [7]: 1530 nM
- IC50 [8]: 570 nM

SMILES: CC(=O)Nc1ccc(C=NNC(N)=S)cc1 [Conteben, 4-acetylaminobenzaldehyde-thiosemicarbazone, reference compound]
- MIC (Mycobacterium lufu): 339 µM (≈ 80.1 µg/mL)
- MIC [1]: 4 µM (≈ 0.945 µg/mL)
- MIC ([9]; M. avium Patient str.): 35 µM (≈ 8.27 µg/mL)
- LD50 ([10]; Mouse, p.o., Comptes Rendus Soc. Biol. 1310 (1950)): 950 mg/kg body weight
- LD50 ([10]; Mouse, subc., J. Pharm. Pharmacol. 2, 764 (1950)): 1000-2000 mg/kg body weight

SMILES: NC[C@H]1O[C@H](O[C@H]2[C@H](O)[C@@H](O[C@H]3O[C@H](CO)[C@@H](O)[C@H](N)[C@H]3O)[C@H](N)C[C@@H]2N)[C@H](O)[C@@H](O)[C@@H]1O [Kanamycin, reference compound]
- MIC ([4]; SN304, read-out: Minimum inhibiting concentration): 33 µM (≈ 16 µg/mL)
- MIC [9]: 17 µM (≈ 8.24 µg/mL)

SMILES: [H]/N=C(/N)N[C@H]1[C@H](O)[C@@H](O)[C@H](O[C@@H]2O[C@@H](C)[C@](O)(C=O)[C@H]2O[C@@H]2O[C@@H](CO)[C@H](O)[C@@H](O)[C@@H]2NC)[C@@H](N/C(N)=N\[H])[C@@H]1O [Streptomycin]
- MIC [4, 12]: 55 µM (≈ 32 µg/mL)

SMILES: NC(=S)NN=Cc1ccc(O)cn1 [5-hydroxypyridine-2-(carbox)-aldehyde-thiosemicarbazone]
- gastrointestinal toxicity [11]: serious gastrointestinal toxicity

SMILES: CC(=NNc1ccccn1)c1ccccn1 [PH 22-2, 2-acetylpyridine-2'-pyridylhydrazone]
- MIC (Mycobacterium lufu): 33 µM (≈ 7 µg/mL)
- MIC [1]: 48 µM (≈ 10.2 µg/mL)
- MIC [2]: 28 µM (≈ 5.94 µg/mL)
- MIC [3]: 24 µM (≈ 5.09 µg/mL)
- MIC ([9]; M. avium Patient str.): 132 µM (≈ 28 µg/mL)
- in vivo treatment of lymphatic leukaemia P388 (lymphatic leukaemia P388): ineffective

SMILES: NC(=S)NN=Cc1ccccn1 [Py-2-TSC, pyridine-2-aldehyde-thiosemicarbazone, reference compound]
- LD50 (in vivo): 30 mg/kg
- MIC (Mycobacterium lufu): 40 µM (≈ 7.21 µg/mL)
- LD50 ([10]; Mouse i.p., Cancer Res. 25, 1454 (1965)): 40 mg/kg body weight
